Reference: PubChem BioAssay AID256 (DTP/NCI, 2004)
Several values for one entry are separate records, joined by “and”; a condition that tells them apart may be missing. Identical values can stand only once. Inconclusive results and toxic doses are left out.

System: CD2F1 mice, L1210 leukemia ip, survival T/C
Test: NCI In Vivo Anticancer Drug Screen. Data for tumor model L1210 Leukemia (intraperitoneal) in CD2F1 (CDF1) mice
Conditions: higher = longer survival
Procedure, shortened: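 In this screen, transplantable tumors were grown in mice given either the compound or its vehicle. Results were expressed as the treated measurement relative to the control measurement.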

[1] = endpoint: mean survival time, dose: 100.0 mg/kg/injection, schedule: Q01DX009 (ip), vehicle: other
[2] = endpoint: mean survival time, dose: 100.0 mg/kg/injection, schedule: Q04DX003 (ip), vehicle: Klucel (hydroxypropylcellulose) (HPC)
[3] = endpoint: mean survival time, dose: 100.0 mg/kg/injection, schedule: Q04DX003 (ip), vehicle: saline with Tween-80
[4] = endpoint: mean survival time, dose: 200.0 mg/kg/injection, schedule: Q01DX009 (ip), vehicle: other
[5] = endpoint: mean survival time, dose: 400.0 mg/kg/injection, schedule: Q04DX003 (ip), vehicle: Klucel (hydroxypropylcellulose) (HPC)
[6] = endpoint: mean survival time, dose: 50.0 mg/kg/injection, schedule: Q04DX003 (ip), vehicle: saline
[7] = endpoint: mean survival time, dose: 100.0 mg/kg/injection, schedule: Q04DX003 (ip), vehicle: saline
[8] = endpoint: mean survival time, dose: 100.0 mg/kg/injection, schedule: Q04DX003 (ip), vehicle: saline sonified
[9] = endpoint: mean survival time, dose: 200.0 mg/kg/injection, schedule: Q04DX003 (ip), vehicle: saline sonified
[10] = endpoint: mean survival time, dose: 400.0 mg/kg/injection, schedule: Q04DX003 (ip), vehicle: saline sonified
[11] = endpoint: mean survival time, dose: 100.0 mg/kg/injection, schedule: Q01DX001 (ip), vehicle: saline with Tween-80
[12] = endpoint: mean survival time, dose: 200.0 mg/kg/injection, schedule: Q01DX001 (ip), vehicle: saline with Tween-80
[13] = endpoint: mean survival time, dose: 400.0 mg/kg/injection, schedule: Q01DX001 (ip), vehicle: saline with Tween-80
[14] = endpoint: mean survival time, dose: 25.0 mg/kg/injection, schedule: Q04DX003 (ip), vehicle: saline

COc1ccc2[nH]c3c(c2c1)CCNC3CC(C)CCC=C(C)C (stereo not drawn)
T/C (endpoint: mean survival time, dose: 6.25 mg/kg/injection, schedule: Q01DX009 (ip), vehicle: Klucel (hydroxypropylcellulose) (HPC)): 100 % of control and 110 % of control
T/C (endpoint: mean survival time, dose: 12.5 mg/kg/injection, schedule: Q01DX009 (ip), vehicle: Klucel (hydroxypropylcellulose) (HPC)): 98 % of control and 102 % of control
T/C (endpoint: mean survival time, dose: 25.0 mg/kg/injection, schedule: Q01DX009 (ip), vehicle: Klucel (hydroxypropylcellulose) (HPC)): 97 % of control and 101 % of control
T/C (endpoint: mean survival time, dose: 50.0 mg/kg/injection, schedule: Q01DX009 (ip), vehicle: Klucel (hydroxypropylcellulose) (HPC)): 100 % of control and 103 % of control
T/C (endpoint: mean survival time, dose: 100.0 mg/kg/injection, schedule: Q01DX009 (ip), vehicle: Klucel (hydroxypropylcellulose) (HPC)): 86 % of control and 100 % of control
T/C (endpoint: mean survival time, dose: 200.0 mg/kg/injection, schedule: Q01DX009 (ip), vehicle: Klucel (hydroxypropylcellulose) (HPC)): 108 % of control

Cc1ccc(S(=O)(=O)N/N=C/C(=O)O)cc1
T/C (endpoint: mean survival time, dose: 25.0 mg/kg/injection, schedule: Q01DX009 (ip), vehicle: other): 117 % of control and 108 % of control
T/C [1]: 123 % of control
T/C [2]: 150 % of control
T/C [3]: 123 % of control
T/C [4]: 96 % of control and 102 % of control
T/C [5]: 186 % of control
T/C (endpoint: mean survival time, dose: 600.0 mg/kg/injection, schedule: Q04DX003 (ip), vehicle: Klucel (hydroxypropylcellulose) (HPC)): 114 % of control
T/C (endpoint: mean survival time, dose: 600.0 mg/kg/injection, schedule: Q04DX003 (ip), vehicle: saline with Tween-80): 153 % of control
T/C (endpoint: median survival time, dose: 1.0 mg/kg/injection, schedule: Q03HX024 (ip), vehicle: saline): 111 % of control
T/C (endpoint: median survival time, dose: 2.0 mg/kg/injection, schedule: Q03HX016 (ip), vehicle: saline): 124 % of control
T/C (endpoint: median survival time, dose: 2.0 mg/kg/injection, schedule: Q03HX024 (ip), vehicle: saline): 112 % of control
T/C (endpoint: median survival time, dose: 4.0 mg/kg/injection, schedule: Q03HX008 (ip), vehicle: saline): 124 % of control
T/C (endpoint: median survival time, dose: 4.0 mg/kg/injection, schedule: Q03HX024 (ip), vehicle: saline): 121 % of control
T/C (endpoint: median survival time, dose: 8.0 mg/kg/injection, schedule: Q01DX009 (sc), vehicle: saline): 102 % of control
T/C (endpoint: median survival time, dose: 16.0 mg/kg/injection, schedule: Q01DX009 (oral), vehicle: saline): 101 % of control
T/C (endpoint: median survival time, dose: 16.0 mg/kg/injection, schedule: Q01DX009 (sc), vehicle: saline): 104 % of control
T/C (endpoint: median survival time, dose: 32.0 mg/kg/injection, schedule: Q01DX001 (sc), vehicle: saline): 104 % of control
T/C (endpoint: median survival time, dose: 32.0 mg/kg/injection, schedule: Q01DX009 (ip), vehicle: saline): 166 % of control
T/C (endpoint: median survival time, dose: 32.0 mg/kg/injection, schedule: Q01DX009 (oral), vehicle: saline): 98 % of control
T/C (endpoint: median survival time, dose: 32.0 mg/kg/injection, schedule: Q01DX009 (sc), vehicle: saline): 116 % of control
T/C (endpoint: median survival time, dose: 32.0 mg/kg/injection, schedule: Q03HX016 (ip), vehicle: saline): 123 % of control
T/C (endpoint: median survival time, dose: 32.0 mg/kg/injection, schedule: Q03HX024 (ip), vehicle: saline): 92 % of control
T/C (endpoint: median survival time, dose: 64.0 mg/kg/injection, schedule: Q01DX001 (sc), vehicle: saline): 105 % of control
T/C (endpoint: median survival time, dose: 64.0 mg/kg/injection, schedule: Q01DX009 (ip), vehicle: saline): 157 % of control
T/C (endpoint: median survival time, dose: 64.0 mg/kg/injection, schedule: Q01DX009 (oral), vehicle: saline): 102 % of control
T/C (endpoint: median survival time, dose: 64.0 mg/kg/injection, schedule: Q01DX009 (sc), vehicle: saline): 116 % of control
T/C (endpoint: median survival time, dose: 64.0 mg/kg/injection, schedule: Q04DX003 (ip), vehicle: saline): 164 % of control
T/C (endpoint: median survival time, dose: 128.0 mg/kg/injection, schedule: Q01DX001 (oral), vehicle: saline): 102 % of control
T/C (endpoint: median survival time, dose: 128.0 mg/kg/injection, schedule: Q01DX001 (sc), vehicle: saline): 104 % of control
T/C (endpoint: median survival time, dose: 128.0 mg/kg/injection, schedule: Q01DX009 (oral), vehicle: saline): 102 % of control
T/C (endpoint: median survival time, dose: 128.0 mg/kg/injection, schedule: Q01DX009 (sc), vehicle: saline): 116 % of control
T/C (endpoint: median survival time, dose: 128.0 mg/kg/injection, schedule: Q04DX003 (ip), vehicle: saline): 168 % of control
T/C (endpoint: median survival time, dose: 128.0 mg/kg/injection, schedule: Q08DX002 (ip), vehicle: saline): 155 % of control
T/C (endpoint: median survival time, dose: 256.0 mg/kg/injection, schedule: Q01DX001 (oral), vehicle: saline): 98 % of control
T/C (endpoint: median survival time, dose: 256.0 mg/kg/injection, schedule: Q01DX001 (sc), vehicle: saline): 107 % of control
T/C (endpoint: median survival time, dose: 256.0 mg/kg/injection, schedule: Q01DX009 (oral), vehicle: saline): 105 % of control
T/C (endpoint: median survival time, dose: 512.0 mg/kg/injection, schedule: Q01DX001 (oral), vehicle: saline): 110 % of control
T/C (endpoint: median survival time, dose: 512.0 mg/kg/injection, schedule: Q01DX001 (sc), vehicle: saline): 112 % of control
T/C (endpoint: median survival time, dose: 1024.0 mg/kg/injection, schedule: Q01DX001 (oral), vehicle: saline): 123 % of control

CC(=O)Nc1ccc2c(c1)C(N1CC3CCC(CC3)C1)c1ccccc1-2 (stereo not drawn)
T/C [6]: 105 % of control
T/C [7]: 103 % of control
T/C (endpoint: mean survival time, dose: 200.0 mg/kg/injection, schedule: Q04DX003 (ip), vehicle: saline): 103 % of control

CC(=O)C1CC2c3ccccc3C1c1ccccc12 (stereo not drawn)
T/C (endpoint: mean survival time, dose: 100.0 mg/kg/injection, schedule: Q01DX009 (ip), vehicle: saline with Tween-80): 98 % of control
T/C [8]: 100 % of control
T/C (endpoint: mean survival time, dose: 200.0 mg/kg/injection, schedule: Q01DX009 (ip), vehicle: saline with Tween-80): 98 % of control
T/C [9]: 98 % of control
T/C (endpoint: mean survival time, dose: 400.0 mg/kg/injection, schedule: Q01DX009 (ip), vehicle: saline with Tween-80): 95 % of control
T/C [10]: 91 % of control

O=[N+]([O-])c1ccc(N/N=C(\CI)c2ccccc2)c([N+](=O)[O-])c1
T/C [8]: 97 % of control
T/C [9]: 109 % of control
T/C [10]: 108 % of control

COC(=O)C(C)C1CCC2C3CCC4CC(OC(C)=O)CCC4(C)C3CC(OC(C)=O)C12C (stereo not drawn)
T/C [11]: 95 % of control
T/C [12]: 103 % of control
T/C [13]: 94 % of control

CN(CCO)C1=C(N2CC2)C(=O)C(N(C)CCO)=C(N2CC2)C1=O
T/C (endpoint: mean survival time, dose: 0.5 mg/kg/injection, schedule: Q01DX009 (ip), vehicle: saline): 115 % of control and 117 % of control
T/C (endpoint: mean survival time, dose: 1.0 mg/kg/injection, schedule: Q01DX009 (ip), vehicle: saline): 155 % of control
T/C (endpoint: mean survival time, dose: 1.5 mg/kg/injection, schedule: Q01DX009 (ip), vehicle: saline): 201 % of control and 211 % of control

N#Cc1ccc(NC=O)cc1
T/C [2]: 98 % of control
T/C (endpoint: mean survival time, dose: 200.0 mg/kg/injection, schedule: Q04DX003 (ip), vehicle: Klucel (hydroxypropylcellulose) (HPC)): 98 % of control
T/C [5]: 102 % of control

CCN1C(=O)CSC1=S
T/C (endpoint: mean survival time, dose: 50.0 mg/kg/injection, schedule: Q01DX009 (ip), vehicle: other): 88 % of control
T/C (endpoint: mean survival time, dose: 100.0 mg/kg/injection, schedule: Q01DX001 (ip), vehicle: other): 94 % of control
T/C [1]: 108 % of control
T/C (endpoint: mean survival time, dose: 100.0 mg/kg/injection, schedule: Q04DX003 (ip), vehicle: other): 95 % of control
T/C (endpoint: mean survival time, dose: 200.0 mg/kg/injection, schedule: Q01DX001 (ip), vehicle: other): 93 % of control
T/C [4]: 95 % of control
T/C (endpoint: mean survival time, dose: 200.0 mg/kg/injection, schedule: Q04DX003 (ip), vehicle: other): 93 % of control
T/C (endpoint: mean survival time, dose: 400.0 mg/kg/injection, schedule: Q01DX001 (ip), vehicle: other): 91 % of control

O=C(Sc1ccc([N+](=O)[O-])cc1)C(=O)Sc1ccc([N+](=O)[O-])cc1
T/C (endpoint: mean survival time, dose: 12.5 mg/kg/injection, schedule: Q01DX009 (ip), vehicle: saline with Tween-80): 91 % of control
T/C (endpoint: mean survival time, dose: 50.0 mg/kg/injection, schedule: Q01DX009 (ip), vehicle: saline with Tween-80): 98 % of control

CCNC1(c2ccccc2)CCCCC1
T/C [14]: 105 % of control

CCCCOB(OCCCC)OCCCC
T/C [3]: 98 % of control
T/C (endpoint: mean survival time, dose: 200.0 mg/kg/injection, schedule: Q04DX003 (ip), vehicle: saline with Tween-80): 93 % of control
T/C (endpoint: mean survival time, dose: 400.0 mg/kg/injection, schedule: Q04DX003 (ip), vehicle: saline with Tween-80): 103 % of control

COc1ccc(CC2=NCCc3cc(OC)c(OC)cc32)cc1OC
T/C (endpoint: mean survival time, dose: 25.0 mg/kg/injection, schedule: Q01DX009 (ip), vehicle: saline): 95 % of control
T/C [14]: 110 % of control
T/C (endpoint: mean survival time, dose: 50.0 mg/kg/injection, schedule: Q01DX009 (ip), vehicle: saline): 101 % of control
T/C [6]: 104 % of control
T/C [7]: 96 % of control and 103 % of control

Cc1cc(N)c(S(N)(=O)=O)c([N+](=O)[O-])c1
T/C [11]: 100 % of control
T/C [12]: 97 % of control
T/C [13]: 94 % of control
